Test results: the supplement of paper PMC10307832

Key:
Assay in all cases: relative viability (nuclei count vs DMSO), 5 days (fraction); higher = more cells survive
PC-14 = tested on: PC-14
Outline: (§1)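 Five library-drug doses in √10 steps were combined with a fixed anchor-drug dose, or a single drug was given alone, by pin tool to lung cancer cell lines in 1536-well plates the day after seeding. Nuclei were stained and counted after 5 days. Relative viability is the nuclei count in treated wells over that in vehicle wells, taken as the median of duplicate plates.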

SK-MES-1 = tested on: SK-MES-1
Outline: as §1

NCI-H2087 = tested on: NCI-H2087
Outline: as §1

NCI-H596 = tested on: NCI-H596
Outline: as §1

ChaGo-K-1 = tested on: ChaGo-K-1
Outline: as §1

H3255 = tested on: H3255
Outline: as §1

NCI-H1755 = tested on: NCI-H1755
Outline: as §1

EMC-BAC-2 = tested on: EMC-BAC-2
Outline: as §1

201T = tested on: 201T
Outline: as §1

NCI-H2126 = tested on: NCI-H2126
Outline: as §1

NCI-H322M = tested on: NCI-H322M
Outline: as §1

NCI-H2009 = tested on: NCI-H2009
Outline: as §1

ABC-1 = tested on: ABC-1
Outline: as §1

LXF-289 = tested on: LXF-289
Outline: as §1

HOP-62 = tested on: HOP-62
Outline: as §1

NCI-H3122 = tested on: NCI-H3122
Outline: as §1

CAL-12T = tested on: CAL-12T
Outline: as §1

NCI-H1651 = tested on: NCI-H1651
Outline: as §1

LK-2 = tested on: LK-2
Outline: as §1

NCI-H441 = tested on: NCI-H441
Outline: as §1

NCI-H1734 = tested on: NCI-H1734
Outline: as §1

NCI-H2170 = tested on: NCI-H2170
Outline: as §1

NCI-H647 = tested on: NCI-H647
Outline: as §1

Structure (SMILES): Cc1cnc(-c2cnc(NCCNc3ccc(C#N)cn3)nc2-c2ccc(Cl)cc2Cl)[nH]1 + O=C(c1cc(Cc2n[nH]c(=O)c3ccccc23)ccc1F)N1CCN(C(=O)C2CC2)CC1 [Olaparib] (partner 8 µM)
- relative viability (PC-14; first compound 0.08 µM): 0.242
- relative viability (PC-14; first compound 0.253 µM): 0.235
- relative viability (PC-14; first compound 0.8 µM): 0.296
- relative viability (PC-14; first compound 2.53 µM): 0.233
- relative viability (SK-MES-1; first compound 0.08 µM): 0.734
- relative viability (SK-MES-1; first compound 0.253 µM): 0.704
- relative viability (SK-MES-1; first compound 0.8 µM): 0.738
- relative viability (SK-MES-1; first compound 2.53 µM): 0.762
- relative viability (NCI-H2087; first compound 0.08 µM): 0.671
- relative viability (NCI-H2087; first compound 0.8 µM): 0.635
- relative viability (NCI-H2087; first compound 2.53 µM): 0.459
- relative viability (NCI-H596; first compound 0.08 µM): 1.09
- relative viability (NCI-H596; first compound 0.253 µM): 0.736
- relative viability (NCI-H596; first compound 0.8 µM): 0.775
- relative viability (NCI-H596; first compound 2.53 µM): 0.724
- relative viability (ChaGo-K-1; first compound 0.08 µM): 0.406
- relative viability (ChaGo-K-1; first compound 0.253 µM): 0.361
- relative viability (ChaGo-K-1; first compound 0.8 µM): 0.362
- relative viability (ChaGo-K-1; first compound 2.53 µM): 0.322
- relative viability (H3255; first compound 0.08 µM): 0.585
- relative viability (H3255; first compound 0.253 µM): 0.543
- relative viability (H3255; first compound 0.8 µM): 0.542
- relative viability (H3255; first compound 2.53 µM): 0.563
- relative viability (NCI-H1755; first compound 0.08 µM): 0.941
- relative viability (NCI-H1755; first compound 0.253 µM): 0.819
- relative viability (NCI-H1755; first compound 0.8 µM): 0.804
- relative viability (NCI-H1755; first compound 2.53 µM): 0.869
- relative viability (EMC-BAC-2; first compound 0.08 µM): 0.498
- relative viability (EMC-BAC-2; first compound 0.253 µM): 0.466
- relative viability (EMC-BAC-2; first compound 0.8 µM): 0.504
- relative viability (EMC-BAC-2; first compound 2.53 µM): 0.397
- relative viability (201T; first compound 0.08 µM): 0.848
- relative viability (201T; first compound 0.8 µM): 0.81
- relative viability (201T; first compound 2.53 µM): 0.834
- relative viability (NCI-H2126; first compound 0.08 µM): 0.922
- relative viability (NCI-H2126; first compound 0.253 µM): 0.908
- relative viability (NCI-H2126; first compound 0.8 µM): 0.89
- relative viability (NCI-H2126; first compound 2.53 µM): 0.898
- relative viability (NCI-H322M; first compound 0.08 µM): 0.768
- relative viability (NCI-H322M; first compound 0.253 µM): 0.733
- relative viability (NCI-H322M; first compound 0.8 µM): 0.638
- relative viability (NCI-H322M; first compound 2.53 µM): 0.637
- relative viability (NCI-H2009; first compound 0.08 µM): 0.746
- relative viability (NCI-H2009; first compound 0.253 µM): 0.661
- relative viability (NCI-H2009; first compound 0.8 µM): 0.697
- relative viability (NCI-H2009; first compound 2.53 µM): 0.605
- relative viability (ABC-1; first compound 0.08 µM): 0.788
- relative viability (ABC-1; first compound 0.253 µM): 0.834
- relative viability (ABC-1; first compound 0.8 µM): 0.78
- relative viability (ABC-1; first compound 2.53 µM): 0.763
- relative viability (LXF-289; first compound 0.08 µM): 1.04
- relative viability (LXF-289; first compound 0.253 µM): 1
- relative viability (LXF-289; first compound 0.8 µM): 1.11
- relative viability (LXF-289; first compound 2.53 µM): 1.11
- relative viability (HOP-62; first compound 0.08 µM): 0.354
- relative viability (HOP-62; first compound 0.253 µM): 0.362
- relative viability (HOP-62; first compound 0.8 µM): 0.502
- relative viability (HOP-62; first compound 2.53 µM): 0.324
- relative viability (NCI-H3122; first compound 0.08 µM): 0.568
- relative viability (NCI-H3122; first compound 0.8 µM): 0.651
- relative viability (NCI-H3122; first compound 2.53 µM): 0.545
- relative viability (CAL-12T; first compound 0.08 µM): 0.686
- relative viability (CAL-12T; first compound 0.253 µM): 0.698
- relative viability (CAL-12T; first compound 0.8 µM): 0.802
- relative viability (CAL-12T; first compound 2.53 µM): 0.756
- relative viability (NCI-H1651; first compound 0.08 µM): 0.175
- relative viability (NCI-H1651; first compound 0.253 µM): 0.192
- relative viability (NCI-H1651; first compound 0.8 µM): 0.2
- relative viability (NCI-H1651; first compound 2.53 µM): 0.182
- relative viability (LK-2; first compound 0.08 µM): 0.728
- relative viability (LK-2; first compound 0.253 µM): 0.543
- relative viability (LK-2; first compound 0.8 µM): 0.611
- relative viability (LK-2; first compound 2.53 µM): 0.78
- relative viability (NCI-H441; first compound 0.08 µM): 0.568
- relative viability (NCI-H441; first compound 0.8 µM): 0.536
- relative viability (NCI-H441; first compound 2.53 µM): 0.387
- relative viability (NCI-H1734; first compound 0.08 µM): 0.635
- relative viability (NCI-H1734; first compound 0.253 µM): 0.622
- relative viability (NCI-H1734; first compound 0.8 µM): 0.644
- relative viability (NCI-H1734; first compound 2.53 µM): 0.516
- relative viability (NCI-H2170; first compound 0.08 µM): 0.601
- relative viability (NCI-H2170; first compound 0.8 µM): 0.518
- relative viability (NCI-H2170; first compound 2.53 µM): 0.519
- relative viability (NCI-H647; first compound 0.08 µM): 0.528
- relative viability (NCI-H647; first compound 0.253 µM): 0.558
- relative viability (NCI-H647; first compound 0.8 µM): 0.528
- relative viability (NCI-H647; first compound 2.53 µM): 0.429
